According to patent publication US7998940B2, “Aptamers to von Willebrand factor and their use as thrombotic disease therapeutics” (Archemix Corp., priority 2004, dated 2011):
Where two headings read alike, the source gives them in different places. Oligonucleotides are written 5' to 3', each unit as a sugar letter and its base; * is a phosphorothioate linkage, no mark a phosphodiester; rarer units and linkages stand in square brackets, end groups in braces. Plain capitals give the bases only. {PEG20K-NH2} = 20 kDa PEG attached to the 5' nucleotide via an amine linker; [invdT] = inverted (3'-3') thymidine; d = 2'-deoxy (DNA); r = 2'-OH (RNA)

Assays:
[1] = tested on: rabbit vWF A1 domain (SEQ ID NO 6); assay: dot blot KD determination, rabbit vWF A1 domain; assay type: binding
Procedure: A 12 point protein titration was used in the dot blot assay (300 nM, 100 nM, 30 nM, 10 nM, 3 nM, 1 nM, 300 pM, 100 pM, 30 pM, 10 pM, 3 pM, 0 pM) in 1×DPBS plus 0.1 mg/mL BSA at room temperature for 30 minutes.

[2] = tested on: botrocetin induced platelet aggregation; assay: Inhibition of botrocetin induced platelet aggregation (BIPA) in human PRP; assay type: cell-based; settings: for ≦200 nM aptamer gives >90% blocking in BIPA at 6 minutes: botrocetin induced platelet aggregation
Procedure: In platelet rich plasma isolated from fresh human blood, botrocetin induces platelet aggregation via vWF. Platelet aggregate formation can be measured optically as an increase in % light transmittance on a Chronolog Model 490-4D Aggregometer because aggregation of platelets clarifies the plasma. Aptamers of the invention were analyzed for their ability to inhibit botrocetin induced platelet aggregation (“BIPA”) in human blood. An aptamer of the invention was considered to be active if it could prevent aggregate formation for six minutes post botrocetin addition.
In order to determine the activity of aptamers on live human platelets, BIPA assays were done using freshly prepared platelet rich plasma. Blood was obtained from healthy human donors who had not taken NSAIDS for at least five days. […] Collected blood was pooled into 15 mL conical tubes and was spun at 200 g for 20 minutes. The turbid, yellow layer of platelet rich plasma (“PRP”) was withdrawn from the tubes, pooled, and set aside at room temperature. The remaining blood was spun at 2500 g for ten minutes. The clarified layer of plasma, known as platelet poor plasma (“PPP”), was withdrawn and set aside at room temperature. PRP was aliquoted into cuvettes containing stir bars at a volume of 470 uL. A sample of 500 uL of PPP was aliquoted into a cuvette and placed in the PPP reference cell of the platelet aggregometer. Samples of PRP were prewarmed at 37 degrees C. in the platelet aggregometer for 3-5 minutes before being used in BIPA assays. First, the concentration of botrocetin needed to induce platelet aggregation for each individual donor was determined by titration. This concentration of botrocetin was used for the remainder of the experiment. Next, aptamer was assayed by adding titrations of aptamer (zero, 1 nM to 1000 nM) to prewarmed PRP for one minute, followed by addition of botrocetin. With platelet aggregation, an increase in amplitude of light transmission is seen (FIG. 8). The concentration at which platelet aggregation is blocked at 90% or greater after 6 minutes is reported in the final column of Table 26.

[3] = tested on: full length human vWF binding to lyophilized platelets; assay: Full length human von Willebrand Factor platelet binding assay (FACS); assay type: cell-based
Summary of the method: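 Aptamer titrations (0.1–1000 nM) pre-incubated with 5 nM full-length human vWF, then added to lyophilized platelets plus botrocetin for 15 min at 37 °C in PBS/0.5% BSA. Bound vWF detected by anti-vWF then FITC secondary antibody via flow cytometry MFI; % inhibition versus no-aptamer binding fitted for IC50.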

[4] = tested on: full length human vWF (SEQ ID NO 7); assay: dot blot KD determination and extent of binding, full length human vWF; settings: for Kd: read-out: Full length human vWF KD;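 as to all read-outs here: dot blot binding of aptamers to full length human vWF across a protein titration, incubated 30 minutes at room temperature in 1x DPBS with BSA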
Procedure: Based on this initial screen, KDs were determined for 3 of the vWF dependent binding sequences using the dot blot assay. […] A 12 point protein titration was used in the dot blot assay (300 nM, 100 nM, 30 nM, 10 nM, 3 nM, 1 nM, 300 pM, 100 pM, 30 pM, 10 pM, 3 pM, 0 pM) in 1×DPBS plus 0.1 mg/mL BSA at room temperature for 30 minutes.
An 8 point protein titration was used in the dot blot binding assay (100n M, 30 nM, 10 nM, 3 nM, 1 nM, 300 pM, 100 pM, 0 pM)) in 1× Dulbecco's PBS containing 0.1 BSA (final volume of 50 uL) for 30 minutes at room temperature.

[5] = tested on: rabbit vWF domain A1 binding to lyophilized platelets; assay: Rabbit von Willebrand Factor domain A1 platelet binding assay (FACS); assay type: cell-based
Procedure: Botrocetin induces the binding of the A1 domain of vWF to platelets, as well as the full length protein. It was determined by the inventors that 6-Histidine-tagged rabbit A1 domain vWF purified protein could be induced to bind to human lyophilized platelets with botrocetin. Rabbit A1 binding to platelets is measured with an anti-poly-His antibody followed by incubation with a phycoerythrin conjugated secondary antibody. The degree of binding can be quantified by flow cytometric analysis. The ability of aptamers to block the binding of rabbit A1 to human fixed platelets was correlated with decreased fluorescence signal.
The ability of aptamers of the invention to block rabbit vWF domain A1 binding to lyophilized platelets was also assessed by flow cytometric analysis. Titrations of aptamers (zero, 0.1 nM to 1000 nM) were preincubated briefly with 4 nM of rabbit A1 vWF in FACS buffer (PBS plus 0.5% bovine serum albumin) at room temperature in a volume of 50 uL. Another 50 uL containing 5 uL of lyophilized platelets plus 1 uL of 0.1 U/uL of botrocetin in FACS buffer was added to aptamer/vWF. This reaction was allowed to proceed for 15 minutes at 37 degrees C. after which 200 uL of FACS buffer was added. Platelets were collected by a 6 minute spin at 1470 RCF and the supernatant was discarded. The pellets were resuspended in 100 uL of FACS buffer containing a 1:200 dilution of anti-Penta-HIS-biotin conjugate antibody and were incubated at room temperature for 30 minutes. After the dilution with 200 uL of FACS buffer, the platelets were spun at 1470 RCF for 6 minutes, and the supernatant was discarded. The pellets were resuspended in a 1:100 solution of anti-IgG-PE antibody and were incubated in the dark for 30 minutes at room temperature. The entire 100 uL was diluted into 200 uL of FACS buffer and analyzed immediately by flow cytometric analysis in the FACSCAN. Contaminating debris was eliminated from the analysis by drawing a gate around the population of single and aggregated platelets and collecting data from 10000 events. Median fluorescent intensity (“MedFI”) readings (which are generally equivalent to the MFI readings, described in Example 3a above, for comparative purposes) were quantified for each sample analyzed by flow cytometry. Background MedFI was subtracted from all data points. Percent inhibition was reported by calculating the percent value of binding of […] to platelets in the presence of aptamer at a given concentration relative to binding in the absence of any aptamer (see FIG. 7). IC50 values were determined by fitting the percent inhibition of vWF binding to platelets as a function of aptamer concentration to the equation: % inhibition=% inhibitionmax/(1+IC50/aptamer conc.)

[6] = molecular target: human vWF A1 domain (SEQ ID NO 5) (Homo sapiens, UniProt P04275, T1381A); assay: dot blot KD determination, human vWF A1 domain; settings: read-out: Human vWF A1 domain KD
Procedure: For KD determination, aptamers transcripts were purified on 10% denaturing polyacrylamide gels, 5′ end labeled with γ-^32P ATP.
For KD determination, aptamers were purified on denaturing polyacrylamide gels and 5′-end labeled with γ-^32P ATP. A 6 point protein titration of human vWF A1 domain (SEQ ID NO 5) was used in the dot blot assay (333 nM, 100 nM, 33 nM, 10 nM, 3 nM, 0 nM) in 1×DPBS plus 0.1 mg/mL BSA at room temperature for 30 minutes. KD values were calculated by fitting the equation y=(max/(1+K/protein))+yint using KaleidaGraph (KaleidaGraph v. 3.51, Synergy Software).
KD values were calculated by fitting the equation y=(max/(1+K/protein))+yint using KaleidaGraph (KaleidaGraph v. 3.51, Synergy Software).
All minimer sequences were transcribed, gel-purified on 15% denaturing polyacrylamide gels, 5-^32 end-labeled with γ^32P ATP, and then desalted using two Centri-Spin 10 columns (Princeton Separations Cat. #CS-101, Adelphia, N.J.). For KD determination, minimer transcripts were tested for direct binding to full length human vWF (SEQ ID NO 7), human vWF A1 domain (SEQ ID NO 5), and rabbit vWF A1 domain (SEQ ID NO 6) using an 8 point protein titration from 0-300 nM (3 fold dilutions) in 1× Dulbecco's PBS containing 0.1 mg/mL BSA (in a final volume of 50 uL) for 30 minutes at room temperature and then applied to a nitrocellulose and nylon filter sandwich in a dot blot apparatus (Schleicher and Schuell, Keene, N.H.). KD values were calculated by fitting the equation y=(max/(1+K/protein))+yint using KaleidaGraph (KaleidaGraph v. 3.51, Synergy Software).
All minimer DNA sequences were chemically synthesized, 5-^32P end-labeled with γ-^32P ATP, and then desalted using two Centri-Spin 10 columns (Princeton Separations, Cat. #CS-101, Adelphia, N.J.). […] KD values were calculated by fitting the equation y=(max/(1+K/protein))+yint using KaleidaGraph (KaleidaGraph v. 3.51, Synergy Software).

[7] = tested on: vWF dependent platelet plug formation, human whole blood; assay: PFA-100 assay, human whole blood; assay type: cell-based; settings: citrated human whole blood; minimum concentration that extends closing time to 300 seconds
From the text: Another assay of this Example, using the PFA-100 instrument, is an agonist independent but vWF dependent assay that uses the PFA-100 instrument (Harrison et al., Clin. Lab. Haem., v24, p 225-32 (2002)). The PFA-100 simulates the formation of a hemostatic plug under conditions of high shear force in vivo by recording the time required for a platelets to aggregate and block the flow of citrated whole blood through a microscopic aperture in a membrane coated with collagen and either epinephrine or ADP. This activity is von Willebrand factor dependent as high MW vWF multimers bind to immobilized collagen on the membrane and then bind to and activate platelets because of the shear force induced by drawing the blood through the microscopic aperture.
Fresh whole blood was collected from healthy non-steroidal anti-inflammatory drug (NSAID) free cynomolgus macaques. Aptamers were diluted with physiological saline from Aldon (Cat#9420306) in no-additive vacutainer tubes (Cat#366434, Becton Dickenson). Samples were loaded onto collagen/epinephrine test cartridges (Cat#B4170-20A, Dade Behring) which were used in the PFA-100 machine (Dade Behring). Trigger solution (Cat#B4170-50, Dade Behring) was used in the self-test and to pre-wet the test cartridges. O-ring cleaning pads (Cat#B4170-73, Dade Behring) were used in the self-test and in the O-ring cleaning process.
A self-test, which included an O-ring cleaning process, was always run on the PFA-100 machine before running any samples to ensure proper function of the machine.
During the entire experiment, the tubes of whole blood were gently inverted every five minutes to prevent settling.
In order to assay the titration of aptamer in whole blood, the aptamer was added to no-additive vacutainer tubes and diluted to the desired concentrations (ex: 0 nM, 1 nM to 1000 nM) using physiological saline such that the final volume was […]. When the PFA-100 was ready to run the next set of samples, 1940 μl of whole blood was added to the tube containing a concentration of aptamer. This tube was gently inverted three times to thoroughly mix the aptamer and blood. Samples were always run in duplicate on the PFA-100 machine. 800 μl of this blood mixture was loaded into the collagen/epinephrine test cartridges. The test cartridges were loaded onto the PFA-100 machine. The time of occlusion of the aperture was measured by the PFA-100, with a maximal time of 300 seconds. We estimate the IC95 in this assay to be the minimum concentration of aptamer that extends the closing time to 300 seconds.

[8] = rRdY minimers, 8 point titration 0-300 nM
[9] = 5 nM full length human vWF, lyophilized platelets, botrocetin, read-out: Inhibition of full length hVWF binding in FACS assay, Average IC50
[10] = 4 nM rabbit A1 vWF, lyophilized platelets, botrocetin, read-out: Inhibition of rabbit VWF A1 domain binding in FACS assay, Average IC50
[11] = 5 nM full length human vWF, lyophilized platelets, botrocetin, units in the cell: lower bound pM, upper bound nM, read-out: Inhibition of full length hVWF binding in FACS assay, IC50 range
[12] = DNA 2 minimers, 9 point protein titration
[13] = 4 nM rabbit A1 vWF, lyophilized platelets, botrocetin, units in the cell: lower bound pM, upper bound nM, read-out: Inhibition of rabbit VWF A1 domain binding in FACS assay, IC50 range

Chain of rabbit vWF domain A1 binding to lyophilized platelets (as listed by the source): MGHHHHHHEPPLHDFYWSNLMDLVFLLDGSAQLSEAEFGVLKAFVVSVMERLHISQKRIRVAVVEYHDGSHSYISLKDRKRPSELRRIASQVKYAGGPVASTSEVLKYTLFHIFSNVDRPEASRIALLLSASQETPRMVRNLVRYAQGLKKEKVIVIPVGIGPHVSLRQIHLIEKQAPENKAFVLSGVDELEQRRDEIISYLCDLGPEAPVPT
Chain of rabbit vWF A1 domain (SEQ ID NO 6) (as listed by the source): as above
Chain of human vWF A1 domain (SEQ ID NO 5) (P04275 with tags, fused parts or gaps T1381A): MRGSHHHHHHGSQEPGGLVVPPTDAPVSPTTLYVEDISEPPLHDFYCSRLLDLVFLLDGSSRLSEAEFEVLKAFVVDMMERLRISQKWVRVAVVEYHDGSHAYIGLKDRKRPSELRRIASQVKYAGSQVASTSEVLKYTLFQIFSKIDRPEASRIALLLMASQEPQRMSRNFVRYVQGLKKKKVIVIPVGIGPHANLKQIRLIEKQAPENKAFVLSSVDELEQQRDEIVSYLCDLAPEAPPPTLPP

Substance	≦200 nM aptamer gives >90% blocking in BIPA at 6 minutes [2]	IC50 [3, 9]	IC50 [5, 10]	IC50 [3, 11]	Kd [1, 12]	Kd [4, 12]	other results
ATGAGAGTGCTGGTGGATTGCTCAGGTCTGCTGGCTGCTTACTCTCAT (DNA, backbone not given here) [ARC845]	no activity	–	–	–	–	–	Kd ([1]; DNA 1 minimers): 56 nM; Inhibition of full length hVWF binding in FACS assay, Average IC50 ([3]; 5 nM full length human vWF, lyophilized platelets, botrocetin): no activity; Inhibition of full length hVWF binding in FACS assay, IC50 range ([3]; 5 nM full length human vWF, lyophilized platelets, botrocetin, both bounds in nM): no activity; Full length human vWF KD ([4]; DNA 1 minimers): No binding; Inhibition of rabbit VWF A1 domain binding in FACS assay, Average IC50 ([5]; 4 nM rabbit A1 vWF, lyophilized platelets, botrocetin): no activity; Inhibition of rabbit VWF A1 domain binding in FACS assay, IC50 range ([5]; 4 nM rabbit A1 vWF, lyophilized platelets, botrocetin, both bounds in nM): no activity; Kd ([6]; DNA 1 minimers, competition dot blot, 10 nM protein): 10 nM
GGAGCCACACGACATTGGCGGGCGAGAGCCACGCATGGCTCC (rGrGrArGdCdCrAdCrAdCrGrAdCrAdTdTrGrGdCrGrGrGdCrGrArGrArGdCdCrAdCrGdCrAdTrGrGdCdTdCdC) [SEQ ID NO 192]	yes	2600 pM	2200 pM	–	–	–	Kd [1, 8]: 8 ± 1 nM; Kd [4, 8]: 2 ± 0.2 nM; Kd [6, 8]: 4 ± 1 nM
GGAGCCACGGGGTGGGTAGACGGCGGGTATGTGGCTCC (rGrGrArGdCdCrAdCrGrGrGrGdTrGrGrGdTrArGrAdCrGrGdCrGrGrGdTrAdTrGdTrGrGdCdTdCdC) [SEQ ID NO 180]	yes	2000 pM	9300 pM	731 to 3800 pM	–	–	Kd [1, 8]: 14 nM; Kd [4, 8]: 1 nM; Kd [6, 8]: 11 nM
GGCGTGCAGTGCC-[PEG]-GGCCGTGCGGTGCCTCCGTCACGCC-3T (DNA GGCGTGCAGTGCCGGCCGTGCGGTGCCTCCGTCACGCCT; chemistry not fully specified) [ARC1029, minimized DNA aptamer]	yes	609 pM	754 pM	333 to 1100 pM	6.5 ± 1.5 nM	1.4 ± 0.2 nM	inhibition of botrocetin induced platelet aggregation ([2]; in words, human PRP): inhibiting botrocetin induced platelet aggregation; inhibition of binding of human vWF to lyophilized human platelets ([3]; in words, FACS, FIG. 7): inhibits binding; inhibition of binding of rabbit vWF A1 domain to lyophilized human platelets ([5]; in words, FACS, FIG. 7): inhibits binding
GGCGTGCAGTGCCTATTCTAGGCCGTGCGGTGCCTCCGTCACGCC-3T (DNA, [invdT] at 3' end, backbone not given here) [ARC 1027, minimized DNA aptamer]	yes	1500 pM	2000 pM	208 to 4200 pM	4.6 nM	0.8 nM	IC50 [5, 13]: 462 to 4200 pM
PEG20K-NH2-dGdGdCdGTdGdCdAdGTdGdCdCTTdCdGdGdCdCdGTdGdCdGdGTdGdCdCTdCdCdGTdCdAdCdGdCdC-3T (GGCGTGCAGTGCCTTCGGCCGTGCGGTGCCTCCGTCACGCC; DNA, [invdT] at 3' end, 5' {PEG20K-NH2}, backbone not given here) [ARC1885, 20 kDa PEG conjugate of ARC1172]	–	–	–	–	–	–	IC90 ([2]; human platelet rich plasma): ~50 nM; ~IC95 PFA-100 (nM) with citrated human whole blood [7]: ~100 nM
dGCGTGCAGTGCCT-[PEG]-AGGCCGTGCGGTGCCTCCGTCACGCC-3T (DNA GCGTGCAGTGCCTAGGCCGTGCGGTGCCTCCGTCACGCCT; chemistry not fully specified) [ARC1028, minimized DNA aptamer]	yes	1200 pM	1500 pM	473 to 2700 pM	3.8 nM	1.1 nM	IC50 [5, 13]: 526 to 2700 pM
